# Results from US7271148B2, “Inhibition of cellular proteases” (The Board of Regents of The University of Texas System, priority 1999, dated 2007).
# Experiments:
# μ-calpain = biological target: T1, μ-calpain (Homo sapiens, UniProt P07384); assay: Cleavage of purified recombinant p21cip1 by purified μ-calpain; format: biochemical; details: E64d 100 μM; 0.4 μg p21^cip1, 0.004 units μ-calpain, 30 min at 30° C.; Western blot (FIG. 19)
# T1 construct: purchased Calbiochem (San Diego, Calif.)
# T1 sequence (P07384 1-714): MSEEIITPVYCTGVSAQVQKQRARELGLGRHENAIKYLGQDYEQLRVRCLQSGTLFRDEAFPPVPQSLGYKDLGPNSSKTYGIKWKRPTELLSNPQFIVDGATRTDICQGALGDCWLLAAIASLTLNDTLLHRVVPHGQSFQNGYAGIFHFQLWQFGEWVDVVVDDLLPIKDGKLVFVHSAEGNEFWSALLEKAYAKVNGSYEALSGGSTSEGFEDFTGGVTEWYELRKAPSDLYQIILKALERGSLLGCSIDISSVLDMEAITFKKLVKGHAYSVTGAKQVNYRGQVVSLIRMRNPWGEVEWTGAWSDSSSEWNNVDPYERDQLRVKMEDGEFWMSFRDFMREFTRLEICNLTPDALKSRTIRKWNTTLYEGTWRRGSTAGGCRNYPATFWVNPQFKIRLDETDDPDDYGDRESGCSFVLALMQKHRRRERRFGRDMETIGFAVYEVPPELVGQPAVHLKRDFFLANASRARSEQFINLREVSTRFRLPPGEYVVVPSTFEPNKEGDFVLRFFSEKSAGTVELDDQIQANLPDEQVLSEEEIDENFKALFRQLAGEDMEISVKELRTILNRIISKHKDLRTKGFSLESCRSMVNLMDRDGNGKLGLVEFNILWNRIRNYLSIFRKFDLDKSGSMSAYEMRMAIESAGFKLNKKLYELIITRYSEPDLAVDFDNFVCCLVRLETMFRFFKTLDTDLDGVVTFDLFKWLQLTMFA
# T1 sequence (P04632 1-268 partner): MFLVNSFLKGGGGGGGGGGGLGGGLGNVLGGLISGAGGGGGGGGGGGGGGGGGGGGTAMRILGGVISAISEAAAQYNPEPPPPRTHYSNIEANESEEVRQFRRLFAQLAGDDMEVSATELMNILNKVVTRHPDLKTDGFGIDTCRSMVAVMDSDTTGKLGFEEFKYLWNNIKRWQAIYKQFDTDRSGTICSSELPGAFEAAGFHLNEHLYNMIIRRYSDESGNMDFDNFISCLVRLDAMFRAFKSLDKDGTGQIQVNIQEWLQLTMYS
# Description: (§1) Cleavage of p21^cip1 by calpain. Recombinant p21^cip1 was provided by Harper (37) or Ke (47), and was also prepared using the expression plasmid pET-p21 (37) according to the published methods (30). To evaluate the effect of calpains on p21^cip1, 400 ng of purified recombinant p21^cip1 was incubated with 0.004 units of either pure μ-calpain or m-calpain at 30° C. for 30 minutes in 40 μl of cleavage buffer, containing 25 mM Tris-HCl (pH 7.5), 100 mM NaCl, 3 mM DTT and 5 mM CaCl2 (44). EDTA was added to 10 mM to stop the reaction. An equal volume of 2×SDS gel-loading buffer (18) was mixed with the digestion mixture and the mixture was immediately boiled for 5 min. The digestion products were evaluated by Western blot analysis or SDS-PAGE and coomassie brilliant blue staining.
# FIGS. 19 and 20. Cleavage of purified recombinant p21^cip1 by purified ubiquitous calpains. 19. p21^cip1 (0.4 μg) was incubated with μ-calpain (0.004 units) for 30 min at 30° C. in the presence or absence of E64d (100 μM) and the resulting products were analyzed by Western blot analysis, as described in Materials and Methods 20. p21^cip1 (4 μg) or casein (3 μg) was incubated with 0.04 units of μ-calpain or m-calpain for 30 min at 30° C. and the products of the digestion were examined by SDS-PAGE and coomassie brilliant blue staining. […]
# m-calpain = biological target: T2, m-calpain (Homo sapiens, UniProt P17655); assay: Cleavage of purified recombinant p21cip1 by purified m-calpain; format: biochemical; details: purified recombinant p21^cip1 incubated with m-calpain
# T2 construct: purchased Sigma (St. Louis, Mo.)
# T2 sequence (P17655 1-700): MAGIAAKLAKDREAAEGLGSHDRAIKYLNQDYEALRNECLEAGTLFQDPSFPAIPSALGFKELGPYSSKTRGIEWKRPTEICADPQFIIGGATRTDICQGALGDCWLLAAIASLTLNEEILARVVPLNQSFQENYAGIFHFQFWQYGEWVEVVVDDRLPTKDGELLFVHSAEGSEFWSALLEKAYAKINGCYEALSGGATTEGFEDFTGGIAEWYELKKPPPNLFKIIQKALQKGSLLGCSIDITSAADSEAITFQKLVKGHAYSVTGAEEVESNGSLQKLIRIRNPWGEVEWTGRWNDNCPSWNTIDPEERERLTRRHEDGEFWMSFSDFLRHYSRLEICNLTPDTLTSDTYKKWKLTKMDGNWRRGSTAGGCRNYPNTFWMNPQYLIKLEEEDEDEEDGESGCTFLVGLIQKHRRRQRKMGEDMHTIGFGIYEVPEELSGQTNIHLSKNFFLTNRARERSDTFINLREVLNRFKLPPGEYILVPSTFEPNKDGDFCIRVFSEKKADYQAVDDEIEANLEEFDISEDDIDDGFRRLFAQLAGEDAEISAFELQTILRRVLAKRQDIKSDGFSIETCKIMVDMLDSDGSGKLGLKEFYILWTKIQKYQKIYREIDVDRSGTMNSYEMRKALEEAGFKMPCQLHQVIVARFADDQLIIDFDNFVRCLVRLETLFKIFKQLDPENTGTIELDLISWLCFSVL
# T2 sequence (P04632 1-268 partner): T1 sequence (P04632 1-268 partner)
# Description: as §1
compound,measurement,setting,value
"CC(C)C[C@H](NC(=O)[C@H]1O[C@@H]1C(=O)O)C(=O)NCCCCN=C(N)N (relative stereo) [E64d, trans-epoxysuccinyl-L-leucylamido (4-guanidino)-butane]",proteolysis of p21^cip1 by μ-calpain (in words),μ-calpain,inhibited the proteolysis
same,proteolysis of p21^cip1 by m-calpain (in words),m-calpain,inhibited the proteolysis
